In PubChem BioAssay AID1645865 (Buhrlage Lab, Dana-Farber Cancer Institute and Novartis …, 2021):
pIC50: −log10 of the molar value. Calls of active or inactive are those of the source.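 How the source made its calls: active means maximal inhibition of the USP30 enzyme reaching 30% or more across the dose series; inactive means the rest.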

target: Ubiquitin carboxyl-terminal hydrolase 30 (Homo sapiens) (UniProt Q70CQ3); assay: ubiquitin-specific protease 30 DUB inhibitors, concentration-effect, biochemical, validation of primary actives (AID 1645865); details: purified USP30, Ub-rhodamine cleavage, fluorescence, 2 h
Sequence (Q70CQ3 whole entry, looked up): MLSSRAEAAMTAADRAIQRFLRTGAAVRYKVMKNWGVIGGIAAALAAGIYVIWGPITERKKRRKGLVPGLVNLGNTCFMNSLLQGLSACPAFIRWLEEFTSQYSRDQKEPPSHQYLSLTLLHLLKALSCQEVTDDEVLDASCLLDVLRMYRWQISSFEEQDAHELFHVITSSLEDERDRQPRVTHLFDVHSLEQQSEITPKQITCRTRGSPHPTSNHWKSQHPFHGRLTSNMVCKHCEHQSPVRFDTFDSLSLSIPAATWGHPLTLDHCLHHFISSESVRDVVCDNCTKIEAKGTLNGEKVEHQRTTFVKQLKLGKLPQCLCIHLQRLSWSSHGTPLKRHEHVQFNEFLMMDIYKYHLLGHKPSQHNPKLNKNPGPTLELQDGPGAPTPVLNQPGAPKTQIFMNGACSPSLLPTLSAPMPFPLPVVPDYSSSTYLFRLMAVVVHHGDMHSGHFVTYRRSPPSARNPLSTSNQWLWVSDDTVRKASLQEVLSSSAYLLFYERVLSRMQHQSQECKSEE

SMILES | pIC50 | IC50
Cc1ccc(CN2C(=O)c3cc4ccccc4n3CC2(C)C(=O)NCc2ccccc2)o1 (centres undefined) | 4.83 | 
Cc1cccc(CNC(=O)c2ccc(-c3nnc(-c4cccc(C)c4)o3)cc2)c1 | 5.25 | 
CC1=C(c2ccc(F)cc2)S(=O)(=O)NC1=NCC(=O)Nc1ccc(F)cc1 | 4.68 | 
COc1ccccc1NC(=O)c1cc(-c2ccccn2)nc2ccccc12 | 4.78 | 
COc1cc(/C=C/C(=O)OCC(=O)Nc2ccc([N+](=O)[O-])cc2OC)ccc1O | 4.55 | 
COc1ccc2cc1Oc1cc(ccc1OC)C(O)C13SSC4(C(=O)N1C)C(O)C1=COC=CC(OC2=O)C1N4C3=O (centres undefined) | 6.17 | 
NC(=O)Cn1c(=O)n(Cc2ccc(C(=O)NC3CCCC3)cc2)c(=O)c2ccccc21 |  | > 50 µM (inactive)
Cc1cc(C)n(-c2ccc(C(=O)Nc3cccc(S(=O)(=O)N4CCCC4)c3)cc2)n1 | 5.02 | 
CC(=O)c1ccc(NC(=O)/C(=C/c2ccco2)n2nnnc2-c2ccccc2)cc1 |  | > 50 µM (inactive)
COc1ccc(NC(=O)c2sc(N3CCOCC3)nc2-c2ccccc2)c(OC)c1 | 4.72 | 
CC(C)OC(=O)c1cc2c(ccn2-c2ccc(F)cc2)n1CC(=O)NC1CCCCC1 |  | > 50 µM (inactive)
Cc1cccc(-n2cnc(C(=O)NCc3ccc(F)cc3)c2)n1 | 4.35 | 
Cc1ccc(CSC2=NS(=O)(=O)c3ccccc3N2)cc1 |  | > 50 µM (inactive)
Cc1ccccc1NC(=O)C(C)n1c(=O)cc(-c2ccccc2)c2c(C)nn(C)c21 (centres undefined) | 5.61 | 
CCCCCC(O)c1c(O)cc2c(c1O)C(=O)c1c(O)cc(O)cc1C2=O (centres undefined) |  | > 50 µM (inactive)
COc1cccc(NC(=O)c2nnn(-c3ccccc3)n2)c1 |  | > 50 µM (inactive)
O=c1[nH]c(C2CCN(S(=O)(=O)c3ccc(S(=O)(=O)NC4CCCC4)cc3)CC2)nc2c1nnn2Cc1cccc(Cl)c1 |  | > 50 µM (inactive)
Cc1ccc(C(=O)Nc2ccc3nccnc3c2)cc1 | 4.46 | 
Cc1cccc(NC(=O)Cn2c(N3CCOCC3)nc3cc(C)n(C)c3c2=O)c1 | 4.68 | 
CC(C)CC(=O)Nc1cc(F)c2nc(N3CCOCC3)ccc2c1 |  | > 50 µM (inactive)
Cc1nc(-c2ccc(NC(=O)N3CCN(c4ccccn4)CC3)cc2)no1 |  | > 50 µM (inactive)
O=C(NCCN1CCCC1)C1CCN(c2cnc(N3CCCCC3)nc2)CC1 |  | > 50 µM (inactive)
CC1(C)CC(n2[nH]c(=O)c3c2NC(=O)CSC3c2ccc(OCc3ccccc3)cc2)CCO1 (centres undefined) | 4.92 | 
O=c1sc2ccccc2c(=O)n1Cc1cccc(C(F)(F)F)c1 |  | > 50 µM (inactive)
COc1ccc(OC)c(NC(=O)CNC(=O)c2cc3c(OC)cccc3[nH]2)c1 |  | > 50 µM (inactive)

SMILES | pIC50 | IC50
CCN(CC)c1nc(F)c2c(c1F)S(=O)(=O)CCN2Cc1cccnc1 |  | > 50 µM (inactive)
Cc1c(C(=O)Nc2cccc(C(F)(F)F)c2)cnn1-c1ccccn1 | 4.44 | 
CC(C)NS(=O)(=O)c1cccc2c(NC(=O)C(Cc3ccccc3)NC(=O)c3ccccc3)cccc12 (centres undefined) | > 7.30 | 
CCn1cnc2c1c(=O)n(CC(=O)NCc1ccccc1Cl)c(=O)n2Cc1ccccc1 |  | > 50 µM (inactive)
Cn1c(=O)c(C(=O)CN2CCN(c3ccc(O)cc3)CC2)c(N)n(Cc2ccccc2)c1=O |  | > 50 µM (inactive)
COc1ccc(C(=O)CSc2nnc(-c3cccnc3)n2-c2ccccc2)cc1 |  | > 50 µM (inactive)
CCn1c(SCc2nc(N)c3ccccc3n2)nc2ccccc21 |  | > 50 µM (inactive)
Cc1cc(NC(=O)c2nnn(-c3ccccc3Cl)c2C)no1 |  | > 50 µM (inactive)
CN(Cc1ccccc1)S(=O)(=O)c1ccc2[nH]cc(C(=O)NCc3cccs3)c(=O)c2c1 | 6.42 | 
O=C(NCCc1ccco1)c1ccc(N2CCOc3ccccc32)s1 | 4.56 | 
CC(C)(C)n1nc(C2CC2)c(Br)c1NC(=O)c1ccccc1F | 4.47 | 
COc1ccc(CNC(=O)CCc2nc3sc4c(c3c(=O)[nH]2)CCCCC4)cc1 |  | > 50 µM (inactive)
N#Cc1ccc(COC(=O)c2ccc3ccccc3n2)cc1 |  | > 50 µM (inactive)
Cn1ccnc1CN1C[C@H]2CCN(c3ncccn3)C[C@H]2C1 |  | > 50 µM (inactive)
Fc1ccc(Oc2nc(CN3CCOCC3)nc3sc4c(c23)CCCC4)c(Cl)c1 |  | > 50 µM (inactive)
COc1ccccc1Nc1ncc(C(=O)NCCc2ccc(Cl)cc2)c2ccccc12 | 5.59 | 
O=C(Nc1cc(F)c2nc(N3CCOCC3)ccc2c1)C1CC1 |  | > 50 µM (inactive)
COc1cccc(NC(=O)Nc2nccn(-c3ccc(F)cc3)c2=O)c1 | 4.67 | 
COc1cc2c(cc1OC)-c1cc(Nc3ccc(Br)cc3)nc(=O)n1CC2 | 6.03 | 
Cc1nc(-c2cccc(NC(=O)c3ccccc3Cl)c2)no1 |  | > 50 µM (inactive)
COc1cccc(CCNC(=O)CCn2c(=O)c(C)nc3cc(C)c(C)cc32)c1 |  | > 50 µM (inactive)
Cc1ccc(NC(=O)c2nnn(-c3ccccc3Br)c2C)cc1C |  | > 50 µM (inactive)
O=C(NCc1ccccc1)c1ccc(-c2ccc(N3CCCC3)nn2)cc1 |  | > 50 µM (inactive)
COc1cccc(-n2cnc3cc(C(=O)NC4CC4)ccc3c2=O)c1 |  | > 50 µM (inactive)
O=C(Cc1nnc2c(-c3nc(C4CC4)no3)cccn12)Nc1ccccc1 | 4.57 | 

SMILES | pIC50 | IC50
COc1ccc(CCNC(=O)[C@H](CCSC)NC(=O)N2CCn3c2nc2ccccc23)cc1OC | 4.36 | 
O=C(NC(Cc1ccccc1)c1nc2ccccc2[nH]1)c1ccccn1 (centres undefined) |  | > 50 µM (inactive)
O=c1c2ccccc2oc2nc(-c3cccs3)n(-c3ccccc3)c(=O)c12 | 5.62 | 
FC(F)(F)c1cccc(Nc2nnc(-c3cccnc3)s2)c1 | 5.56 | 
O=C(Nc1ccccc1)c1ccc2c(c1)CC(c1ccccc1)OC2=O (centres undefined) | 5.11 | 
O=C(Cn1cncc(-c2nc(-c3ccccc3)cs2)c1=O)NC1CCCC1 | 4.46 | 
COc1ccccc1NC(=O)c1cc2c(C)nn(Cc3ccccc3)c2s1 | 4.54 | 
CSc1cccc(C(=O)Nc2ccc(-c3nc4ccccc4[nH]3)cc2)c1 | 5.54 | 
Cc1ccc(C(=O)Nc2ccc3c(c2)C(=O)N(C)c2ccccc2O3)cc1C |  | > 50 µM (inactive)
Cc1ccc(-c2nnc(-n3ncc(C#N)c3N)c3ccccc23)cc1C |  | > 50 µM (inactive)
COc1cccc(NC(=O)Nc2ccc(CCc3nc4ccccc4[nH]3)cc2)c1 | 4.55 | 
CCC(=O)Nc1cccnc1-c1ccc(C(=O)Nc2cccc(OC)c2)cc1 |  | > 50 µM (inactive)
CCOC(=O)c1cnc(C(F)(F)F)nc1Sc1n[nH]c(-c2cccs2)n1 |  | > 50 µM (inactive)
COc1ccc(NC(=O)CSc2nnc(Cc3cccc4ccccc34)n2C)cc1 |  | > 50 µM (inactive)
COc1ccc(OC)c(NC(=O)Cn2c(=O)n(CC3CCC(C(=O)NCCc4ccccc4)CC3)c(=O)c3ccccc32)c1 (centres undefined) | 5.75 | 
COc1cccc(C(=O)NCC(=O)Nc2nc3ccccc3[nH]2)c1 | 4.46 | 
COc1ccccc1-c1nc(-c2cn(-c3ccc(C)cc3)nn2)no1 | 5.19 | 
Cc1nn(-c2ccccc2)c(C)c1C(=O)OCC(=O)Nc1cccc(C#N)c1 |  | > 50 µM (inactive)
COc1cccc(CNC(=O)c2ccc3c(c2)NC(=O)C2CCCN32)c1OC (centres undefined) |  | > 50 µM (inactive)
CO[C@H]1/C=C/OC2(C)Oc3c(C)c(O)c4c(c3C2=O)C2(C=C(NC(=O)/C(C)=C\C=C\[C@H](C)[C@H](O)[C@@H](C)[C@@H](O)[C@@H](C)[C@H](OC(C)=O)C1C)C4=O)OCC(=O)O2 (some centres undefined) |  | > 50 µM (inactive)
Cc1cccc(NC(=O)Nc2ccc(C)n(CC(=O)Nc3ccccc3)c2=O)c1 | 5.34 | 
N#Cc1ccccc1OCc1csc(-c2ccccc2)n1 |  | > 50 µM (inactive)
Cc1cccc(NC(=O)c2ccn(COc3ccc(F)cc3F)n2)c1C |  | > 50 µM (inactive)
COc1ccc(NC(=O)CSc2oc(-c3ccc(C)cc3)nc2S(=O)(=O)c2ccc(Br)cc2)c(OC)c1 |  | > 50 µM (inactive)
Cc1ccc(NC2=NC(c3ccco3)n3c(nc(C)cc3=O)N2)c(C)c1 (centres undefined) | 5.54 | 

SMILES | pIC50 | IC50
COc1cccc(OCCCn2c(C(C)NC(=O)c3ccco3)nc3ccccc32)c1 (centres undefined) | 4.46 | 
COc1ccccc1CNC(=O)c1c(O)c2cnn(-c3cccc(C)c3)c2[nH]c1=O |  | > 50 µM (inactive)
Cc1ccc(Cn2c(=O)n(CCC(=O)NCCc3ccccc3)c(=O)c3ccccc32)cc1 | 5.29 | 
CO/C=C/C(=O)c1cc2cnc3c(=N)cc(NC(C)=O)c([nH]1)c23 |  | > 50 µM (inactive)
COc1cccc2c1NC(=O)C21CCN(C(=O)Nc2cccc(C)c2)CC1 | 4.79 | 
Cc1sc2ncnc(OCc3ccc(F)cc3Cl)c2c1C |  | > 50 µM (inactive)
CCOc1ccc(-c2noc(-c3nn(-c4cccc(OC)c4)ccc3=O)n2)cc1 | 5.46 | 
C/C=C1/C2=CCCN3C(=O)O[C@H]([C@H]1O)[C@H]23 |  | > 50 µM (inactive)
O=C(Nc1cc(-c2cccnc2)no1)c1ccc(F)c(F)c1 | 4.70 | 
CCc1cc2c(=O)[nH]c(Cc3ccc(OC)cc3)nc2s1 | 4.40 | 
O=C(COc1nsnc1N1CCOCC1)Nc1ccccc1F |  | > 50 µM (inactive)
O=C(Nc1ccc(-c2cn3ccsc3n2)cc1)c1ccc(Cl)c([N+](=O)[O-])c1 | 5.90 | 
N#Cc1ccc(Cc2ncc(C(F)(F)F)cc2Cl)s1 |  | > 50 µM (inactive)
O=C1Oc2nc3ccccc3cc2CN1Cc1ccco1 | 4.77 | 
Clc1cccc(N2CCN(c3ncnc4nc[nH]c34)CC2)c1 | 4.61 | 
CC(C)CCN1C(=O)C2C(C(=O)Nc3ccc(Oc4ccccc4)cc3)C3C=CC2(O3)C1C(=O)NC1CCCCC1 (centres undefined) | 4.49 | 
O=C(O)c1ccc(C2Cc3c([nH]c(=O)[nH]c3=O)O2)cc1 (centres undefined) | 5.01 | 
COc1ccccc1NC(=O)Cn1cc(C(=O)c2ccc(C)cc2)c(=O)c2cc(Cl)ccc21 | 5.41 | 
O=C(NCC(c1cccnc1)N1CCc2ccccc2C1)C(=O)Nc1ccc2c(c1)OCO2 (centres undefined) | 4.48 | 
O=C(CSc1cn(Cc2ccccc2)c2ccccc12)Nc1ccc2c(c1)OCCO2 |  | > 50 µM (inactive)
COc1ccc(OC)c(-c2cc(C(=O)Nc3c(C)nn(Cc4ccccc4)c3C)no2)c1 |  | > 50 µM (inactive)
COc1ccc2nc(Nc3ncc4c(n3)CCCC4=O)nc(C)c2c1 |  | > 50 µM (inactive)
O=C(NC(Cc1ccccc1)c1nc2ccccc2[nH]1)C1CC1 (centres undefined) |  | > 50 µM (inactive)
COc1ccccc1S(=O)(=O)N1CC[C@@H]2CN(C)[C@@H]2C1 | 4.49 | 
